Columns and labels:
[1] = tested on: men and women with average to mildly elevated total and LDL-cholesterol, below average HDL-cholesterol and no clinical evidence of atherosclerotic …; assay: AFCAPS/TexCAPS double-blind, randomized, placebo controlled primary prevention trial of lovastatin; type: in vivo, human
Source text: The following is a description of a clinical trial referred to herein as “AFCAPS/TexCAPS” or “AFCAPS” employing lovastatin to exemplify the methods of the present invention.
AFCAPS/TexCAPS was a primary prevention endpoint event trial which: (1) included unstable angina as a primary endpoint, reflecting the trend to treat coronary heart disease aggressively before a myocardial infarction has occurred; 2) involved aggressive pharmacologic intervention, with titration, to target an LDL-cholesterol goal lower than current National Cholesterol Education Panel guidelines for primary prevention; and 3) included a cohort comprised of men and women with a broad age range encompassing the elderly and included persons with a lipid profile consisting of average total and LDL-cholesterol, below average HDL-cholesterol levels; total cholesterol/HDL-cholesterol ratio greater than or equal to 4.5, with a baseline mean ratio of 6.1 for the cohort; and LDL/HDL-cholesterol ratio greater than or equal to 4.
Entrance inclusion criteria were LDL-cholesterol 130-190 mg/dl (or <130 if the ratio of total cholesterol/HDL is >6) and HDL-cholesterol ≦45 mg/dl for men and ≦47 mg/dl for women.
AFCAPS/TexCAPS was a double-blind, randomized, placebo controlled trial designed and powered to investigate whether chronic lipid-lowering, with lovastatin will decrease the rate of first acute major coronary events (e.g. sudden cardiac death, fatal and non-fatal myocardial infarction and unstable angina) compared to intervention with diet alone during at least 4.5 years of follow-up in a cohort without clinical evidence of atherosclerotic cardiovascular disease and with average to mildly elevated total cholesterol, average to midly elevated LDL-cholesterol, and below average HDL-cholesterol. Secondary objectives included whether chronic treatment with lovastatin, compared to placebo, would decrease cardiovascular morbidity and mortality across the spectrum of clinical events, by measuring the rates of: (1) fatal and non-fatal coronary revascularization procedures (2) unstable angina, (3) fatal and non-fatal myocardial infarction, (4) fatal and non-fatal cardiovascular events, (5) fatal and non-fatal coronary events.
All participants underwent dietitian taught group instruction in the American Heart Association Step 1 diet commencing at least 12 weeks prior to randomization (Week -12) and reinforced at Weeks-4 and -2. Baseline observations included collection of medical history, health habit and demographic data, physical exam, eye exam (San Antonio clinic only), chest X-ray, mammogram (women), electrocardiogram and analysis of lipids/lipoproteins, hematology, blood chemistry and urine. A 2-week placebo baseline run-in was followed by randomization of eligible compliant participants to treatment with lovastatin or placebo.
Participants included 6605 men and women with normal to mildly elevated total and LDL-cholesterol and below average HDL-cholesterol defined as: total cholesterol 180-264 mg/dl, LDL-cholesterol 130-190 mg/dl, HDL-cholesterol ≦45 mg/dl for men and ≦47 mg/dl for women and triglycerides ≦400 mg/dl. All lipid/lipoprotein entrance criteria had to be met on average at both four and two weeks prior to randomization (after at least eight weeks of diet therapy). In addition, for both total and LDL-cholesterol, the two eligibility determinations had to be within 15% of each other.
Excluded for clinical evidence of atherosclerotic cardiovascular disease were men and women who had: prior history of myocardial infarction; angina; claudication; cerebrovascular accident; or transient ischemic attack. Also excluded were those aged >73 years or <45 years (men) or <55 years (women) or those with secondary hyperlipoproteinemia, nephrotic syndrome, uncontrolled or insulin-dependent diabetes mellitus or uncontrolled hypertension.

[2] = tested on: patients with hypercholesterolemia and/or CHD; details: coronary and carotid arteries; cited from earlier work
[3] = Secondary Endpoint: Fatal and Nonfatal Coronary Events, lovastatin vs placebo
[4] = first acute major coronary events, baseline HDL-C tertile 34.5-39.5 mg/dl
[5] = first acute major coronary events, baseline HDL-C tertile <34.0 mg/dl
[6] = first acute major coronary events, baseline HDL-C tertile >39.5 mg/dl
[7] = first acute major coronary events, baseline LDL-C tertile 142.0-156.8 mg/dl
[8] = first acute major coronary events, baseline LDL-C tertile <142 mg/dl
[9] = first acute major coronary events, baseline LDL-C tertile >156.9 mg/dl

## CC[C@H](C)C(=O)O[C@H]1C[C@@H](C)C=C2C=C[C@H](C)[C@H](CC[C@@H]3C[C@@H](O)CC(=O)O3)[C@H]21 [lovastatin]
[1]; Primary Endpoint: acute major coronary events, lovastatin 20-40 mg once a day vs placebo, median 5.2 years
  Relative Risk (C.I.): 0.63 (0.50, 0.79),
[1]; Secondary Endpoint: Fatal and Nonfatal Cardiovascular Events, lovastatin vs placebo
  Relative Risk (C.I.): 0.75 (0.62, 0.91),
[1]; [3]
  Relative Risk (C.I.): 0.75 (0.61, 0.92),
  Risk Reduction: 25%
[1]; Secondary Endpoint: Fatal and Nonfatal MI, lovastatin vs placebo
  Relative Risk (C.I.): 0.60 (0.43, 0.83),
[1]; Secondary Endpoint: Revascularizations, lovastatin vs placebo
  Relative Risk (C.I.): 0.67 (0.52, 0.85),
[1]; Secondary Endpoint: Unstable Angina, lovastatin vs placebo
  Relative Risk (C.I.): 0.68 (0.48, 0.95),
[1]; baseline HDL-C tertile 34.5-39.5 mg/dl
  % change in HDL-C from baseline to the one year point: 6.2%
[1]; baseline HDL-C tertile <34.0 mg/dl
  % change in HDL-C from baseline to the one year point: 7.4%
[1]; baseline HDL-C tertile >39.5 mg/dl
  % change in HDL-C from baseline to the one year point: 4.3%
[1]; baseline LDL-C tertile 142.0-156.8 mg/dl
  % change in LDL-C from baseline to the one year point: −26.0%
[1]; baseline LDL-C tertile <142 mg/dl
  % change in LDL-C from baseline to the one year point: −20.1%
[1]; baseline LDL-C tertile >156.9 mg/dl
  % change in LDL-C from baseline to the one year point: −28.9%
[1]; first acute major coronary events by LDL-C and HDL-C tertiles at randomization
  dependence of risk reduction on baseline LDL-C and HDL-C: independent of baseline LDL-C and HDL-C
[1]; [4]
  Relative Risk (95% C.I.): 0.57
  Risk Reduction: 43%
[1]; [5]
  Relative Risk (95% C.I.): 0.55
  Risk Reduction: 45%
[1]; [6]
  Relative Risk (95% C.I.): 0.85
  Risk Reduction: 15%
[1]; [7]
  Relative Risk (95% C.I.): 0.64
  Risk Reduction: 36%
[1]; [8]
  Relative Risk (95% C.I.): 0.66
  Risk Reduction: 34%
[1]; [9]
  Relative Risk (95% C.I.): 0.59
  Risk Reduction: 41%
[2]
  progression of atherosclerotic lesions: slow the progression of atherosclerotic lesions

— patent US20020103251A1, “Cholesterol-lowering therapy” (priority 1997, published 2002)
